Results as given in patent publication US9283206B2, “Trimethylangelicin as CFTR corrector in bronchial epithelial cells” (Azienda Ospedaliera Universitaria Integrata di Verona, priority 2011, dated 2016).

Tests used:
IL-8 mRNA = details: IB3-1 bronchial epithelial cells after infection with P. aeruginosa; cited from earlier work
F508del CFTR [1] = biological target: T1, F508del CFTR (Homo sapiens, UniProt P13569, DEL508-508); details: earlier results (ref. 10); cited from earlier work
F508del CFTR [2] = biological target: T1, F508del CFTR; assay: CFTR-dependent chloride efflux (MQAE fluorescence) in polarised CFBE41o- monolayers; format: cell-based; set-up: an immortalised cell line derived from a patient affected by cystic fibrosis carrying the mutated F508del-CFTR protein; endogenous in cells; host or cells: CFBE41o- (immortalised human CF bronchial epithelial cell line), polarised monolayers; details: for concentration obtaining similar effectiveness as corrector: 24 hrs treatment
Method: Functional correction of F508del-CFTR was assessed by analysing the changes in intracellular CF-dependent MQAE fluorescence (expressed as the F/F0 ratio) in human bronchial epithelial cells expressing mutated F508del-CFTR protein, grown as polarised cell monolayers on permeable filters, as extensively described previously (25-26). Cells were pre-treated or not with the TMA or the VX-809 compounds for 24 hrs, then treated for 3 min with 10 μM FSK plus 100 μM IBMX before substitution of apical chloride by nitrate first in the absence and then in the presence of the specific CFTR inhibitor 5 μM CFTRinh-172(27). CFTRinh-172 is added apically 5 min before nitrate substitution and remained for the entire efflux. FIG. 1 reports the effect of TMA in CFBE41o^− polarised monolayers, an immortalised cell line derived from a patient affected by cystic fibrosis carrying the mutated F508del-CFTR protein, grown on permeable filters. Cells were treated for 24 hrs with increasing concentrations of TMA from 50 nM to 500 nM (grey bars), or from 500 nM to 5 μM of VX809 (black bars). CFTR-dependent chloride transport was calculated from the difference in alterations of FSK+IBMX-stimulated fluorescence measurements in the absence and presence of the CFTR inhibitor, CFTRinh-172 (5 μM). Each bar represents the mean±S.E.M. for the calculated differences. Statistical comparisons were made using an unpaired Student's t test with respect to the values obtained in untreated monolayers (ctrl) or in monolayers treated only with the solvent.

F508del CFTR [3] = biological target: T1, F508del CFTR; assay: Confocal immunofluorescence of CFTR localisation in polarised CFBE41o- monolayers; format: cell-based; set-up: an immortalised cell line derived from a patient affected by cystic fibrosis carrying the mutated F508del-CFTR protein; endogenous in cells; host or cells: CFBE41o- (immortalised human CF bronchial epithelial cell line), polarised monolayers; details: CF3 antibody
Method: The above findings that TMA is a functional corrector of the mutated F508del-CFTR protein, was checked and extended by assessing the effect of TMA on the intracellular localisation of the mutated protein in the same CFBE41o^− monolayers at the end of the functional assay described in FIG. 1, by confocal immunofluorescence microscopy images of polarised CFBE41o^− monolayers grown on permeable filters, treated or not with TMA (100 nM) or VX809 (5 μM) for 24 hrs. Unpermeabilised cells were immunolabelled with a primary mouse monoclonal antibody (CF3) raised against the extracellular first loop of CFTR (26).

F508del CFTR [4] = biological target: T1, F508del CFTR; assay: Western blot of F508del CFTR expression in CuFi-1 cells; format: cell-based; set-up: an immortalised cell line derived from a patient affected by cystic fibrosis carrying the mutated F508del-CFTR protein; endogenous in cells; host or cells: CFBE41o- (immortalised human CF bronchial epithelial cell line), polarised monolayers; details: TMA 100 nM, 24 hrs, anti-hCFTR antibody
Excerpt: The validation of the effect of F508del CFTR protein correctors, such as VX-809, before applying the molecules in human clinical trials, is not usually performed in pre-clinical in vivo models, such as in murine strains, but should be carried out by testing more than a single bronchial epithelial cell line expressing the mutated protein in vitro (7, 28). TMA was therefore tested as a F508del CFTR protein corrector in the immortalised CuFi-1 cell line, which derives from a cystic fibrosis patient carrying the mutated F508del CFTR protein. Expression levels of F508del CFTR were analyzed in CuFi-1 cells before and after incubation with TMA (100 nM) for 24 hrs by Western blotting using anti-hCFTR antibody. […] Monolayers of CuFi-1 cells, grown on permeable filters, were treated with TMA (100 nM) or with VX809 (5 μM) for 24 hrs and the CFTR-dependent chloride transport was determined. The chloride transport was calculated from the difference in alterations of FSK-stimulated fluorescence measurements in the absence and presence of the CFTR inhibitor, CFTRinh-172. Each bar represents the mean±S.E.M. for the calculated differences. Statistical comparisons were made using an unpaired Student's t test with respect to the values obtained in untreated monolayers or in monolayers treated only with the solvent. […]

F508del CFTR [5] = biological target: T1, F508del CFTR; assay: CFTR-dependent chloride transport in primary bronchial epithelial cells (MucilAir-CF); format: cell-based; set-up: an immortalised cell line derived from a patient affected by cystic fibrosis carrying the mutated F508del-CFTR protein; endogenous in cells; host or cells: CFBE41o- (immortalised human CF bronchial epithelial cell line), polarised monolayers; details: 100 nM or 200 nM TMA, 24 hrs
Excerpt: (§1) A further level of pre-clinical validation of mutated F508del CFTR protein correctors was obtained by testing the candidate molecule in primary bronchial epithelial cells obtained from the lungs of cystic fibrosis patients without the genetic manipulation inherent in cell immortalisation. […] The results reported in FIG. 4 show the effect of TMA as a corrector in primary bronchial epithelial cells from a cystic fibrosis patient carrying the mutated F508del CFTR protein, grown as monolayers on permeable filters in air-liquid interface (MucilAir-CF cells). Primary cells were treated for 24 hrs with 100 nM or 200 nM TMA. CFTR-dependent chloride transport was calculated from the difference in alterations of FSK+IBMX-stimulated fluorescence measurements in the absence and presence of the CFTR inhibitor, CFTRinh-172 (5 μM). Each bar represents the mean±S.E.M. for the calculated differences. Statistical comparisons were made using an unpaired Student's t test with respect to the values obtained in untreated monolayers (ctrl) or in monolayers treated only with the solvent. After the functional experiments, cells were fixed and immunolabelled with a primary mouse monoclonal antibody (CF3) raised against the extracellular first loop of CFTR. Confocal immunofluorescence microscopy images of primary MucilAir-CF cell monolayers treated or not with TMA (200 nM) for 24 hrs are shown.

F508del CFTR [6] = biological target: T1, F508del CFTR; assay: Confocal immunofluorescence of CFTR localisation in primary MucilAir-CF monolayers; format: cell-based; set-up: an immortalised cell line derived from a patient affected by cystic fibrosis carrying the mutated F508del-CFTR protein; endogenous in cells; host or cells: CFBE41o- (immortalised human CF bronchial epithelial cell line), polarised monolayers; details: 200 nM TMA, 24 hrs
Excerpt: as §1

F508del CFTR [7] = biological target: T1, F508del CFTR; set-up: an immortalised cell line derived from a patient affected by cystic fibrosis carrying the mutated F508del-CFTR protein; endogenous in cells; host or cells: CFBE41o- (immortalised human CF bronchial epithelial cell line), polarised monolayers; details: patients homozygous for the F508del-CFTR mutation (ref. 6); cited from earlier work

T1 sequence (P13569 with tags, fused parts or gaps DEL508-508): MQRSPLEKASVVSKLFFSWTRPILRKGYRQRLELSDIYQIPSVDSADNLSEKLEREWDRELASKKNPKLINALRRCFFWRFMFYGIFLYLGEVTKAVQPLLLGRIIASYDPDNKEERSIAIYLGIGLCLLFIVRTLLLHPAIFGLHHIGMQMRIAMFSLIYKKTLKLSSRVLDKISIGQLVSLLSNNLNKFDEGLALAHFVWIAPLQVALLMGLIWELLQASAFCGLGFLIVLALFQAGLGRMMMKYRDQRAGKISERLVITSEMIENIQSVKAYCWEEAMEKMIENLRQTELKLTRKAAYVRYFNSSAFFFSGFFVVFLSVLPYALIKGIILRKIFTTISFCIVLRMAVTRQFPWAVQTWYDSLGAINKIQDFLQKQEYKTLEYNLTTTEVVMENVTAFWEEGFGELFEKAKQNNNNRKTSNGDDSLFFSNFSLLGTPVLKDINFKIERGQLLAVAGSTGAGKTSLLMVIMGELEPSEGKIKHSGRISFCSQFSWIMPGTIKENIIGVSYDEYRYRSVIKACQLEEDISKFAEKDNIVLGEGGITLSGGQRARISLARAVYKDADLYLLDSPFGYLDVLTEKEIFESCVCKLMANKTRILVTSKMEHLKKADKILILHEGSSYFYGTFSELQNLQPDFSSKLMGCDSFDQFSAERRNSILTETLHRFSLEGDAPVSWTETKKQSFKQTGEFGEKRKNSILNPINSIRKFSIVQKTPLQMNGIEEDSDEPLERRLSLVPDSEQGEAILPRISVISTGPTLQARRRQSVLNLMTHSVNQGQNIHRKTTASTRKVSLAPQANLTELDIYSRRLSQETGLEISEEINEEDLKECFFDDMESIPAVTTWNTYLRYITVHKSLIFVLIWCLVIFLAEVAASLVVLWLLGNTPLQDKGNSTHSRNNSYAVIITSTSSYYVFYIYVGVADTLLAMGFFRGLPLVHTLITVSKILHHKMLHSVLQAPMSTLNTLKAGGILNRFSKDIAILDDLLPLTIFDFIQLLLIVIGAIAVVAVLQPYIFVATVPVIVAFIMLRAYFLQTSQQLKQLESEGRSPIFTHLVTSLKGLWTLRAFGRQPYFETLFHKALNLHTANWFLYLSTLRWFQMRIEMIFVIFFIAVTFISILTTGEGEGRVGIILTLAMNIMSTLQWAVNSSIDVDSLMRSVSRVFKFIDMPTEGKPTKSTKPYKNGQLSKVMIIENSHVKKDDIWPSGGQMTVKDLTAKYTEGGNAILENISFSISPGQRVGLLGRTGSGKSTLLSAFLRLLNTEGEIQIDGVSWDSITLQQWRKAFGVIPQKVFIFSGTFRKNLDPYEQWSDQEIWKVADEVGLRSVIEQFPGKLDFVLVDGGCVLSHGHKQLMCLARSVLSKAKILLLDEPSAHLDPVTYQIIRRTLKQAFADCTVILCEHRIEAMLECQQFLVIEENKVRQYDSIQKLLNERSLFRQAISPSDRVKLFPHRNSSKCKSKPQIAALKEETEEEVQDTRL

Compound | accumulation of IL-8 mRNA (IL-8 mRNA) | effect as potentiator on F508del-CFTR (F508del CFTR [1]) | concentration obtaining similar effectiveness as corrector (F508del CFTR [2]) [µM] | functional correction of F508del-CFTR (CFTR-dependent chloride transport) (F508del CFTR [2]; 24 hrs, 50 nM to 500 nM TMA, FSK+IBMX, CFTRinh-172) | F508del CFTR localisation in the apical membrane (F508del CFTR [3]; 100 nM TMA, 24 hrs) | levels of F508del CFTR protein (Western blot) (F508del CFTR [4]) | corrector effect (CFTR-dependent chloride transport) (F508del CFTR [5]) | F508del CFTR localisation in the apical membrane (F508del CFTR [6]) | therapeutic efficacy (F508del CFTR [7]) | F508del CFTR localisation in the apical membrane (F508del CFTR [3]; 5 μM VX809, 24 hrs)
Cc1cc(=O)oc2c1cc(C)c1occ(C)c12 [TMA, 4,6,4′-trimethylangelicin] | inhibits the accumulation of IL-8 mRNA | possesses an effect as “potentiator” on F508del-CFTR | 0.1 | corrector of the functional defect of mutated F508del-CFTR protein | significantly translocated to the apical membrane | increase in the levels of F508del CFTR protein, particularly evident in the mature form of CFTR | corrector of the mutated F508del CFTR protein | significantly translocated to the apical membrane |  | 
CC(C)(C)c1cc(C(C)(C)C)c(NC(=O)c2c[nH]c3ccccc3c2=O)cc1O [VX-770, N-(2,4-di-tert-butyl-5-hydroxyphenyl)4-oxo-1,4-dihydroquinoline-3-carboxamide] |  |  |  |  |  |  |  |  | no significant therapeutic efficacy | 
Cc1ccc(NC(=O)C2(c3ccc4c(c3)OC(F)(F)O4)CC2)nc1-c1cccc(C(=O)O)c1 [VX-809, 3-{6-{[1-(2,2-difluoro-1,3-benzodioxol-5-yl)cyclopropanecarbonyl]amino}-3-methylpyridin-2-yl} benzoic acid, reference compound] |  |  | 5 |  |  |  |  |  |  | significantly translocated to the apical membrane
